What was measured:
[1] = Solubility classification of probe molecule in solvent; settings: ACQ probe molecule is CUR; label = solvent
[2] = Hansen solubility parameters (HSP), δ difference and HSP distance Ra
[3] = cited from earlier work; for Flash point / Viscosity / Volatility/Boiling point: solvent; for Solvent solubility in water: classified with reference to solvent data in Pub Chem
[4] = document value; cited from earlier work
[5] = HSP distance between solvent and curcumin (CUR)
[6] = total δ of solvent minus total δ of curcumin (CUR)

Compound	Probe solubility in solvent [1]	Ra [2, 5]	δ difference [2, 6]	Flash point [3] [°C]	Viscosity [3] [mPa · s]	Volatility/Boiling point [3] [°C]	Solvent solubility in water [3]	Dispersion δD [4]	Hydrogen bonding δH [4]	Polarity δH [4]	Total δ [4]	Ra ([2]; HSP distance between solvent and rhodamine B)	δ difference ([2]; total δ of solvent minus total δ of rhodamine B)
OCCCCCO [1,5-Pentanediol]	Soluble (0.01-0.1% is soluble)	6.580 (MPa)^1/2	4.118 (MPa)^1/2	129	128	242							
CCCCCC [n-Hexane]	Insoluble	15.204 (MPa)^1/2	−7.679 (MPa)^1/2			69	Insoluble						
CCCCCCCCO [n-Octanol]	Soluble (0.01-0.1% is soluble)	3.753 (MPa)^1/2	−2.022 (MPa)^1/2	81	8.93	195	Insoluble	16 (MPa)^1/2	11.9 (MPa)^1/2	5 (MPa)^1/2	20.557 (MPa)^1/2	14.205 (MPa)^1/2	−9.896 (MPa)^1/2

Reference: patent publication US20260085262A1, “ACQ FLUORESCENCE PROBE COMPOSITION, CMC DETERMINATION METHOD, STAIN CLEANING CONCENTRATION DETERMINATION METHOD, DETERGENT DISPENSING CONTROL METHOD, AND DETERGENT DISPENSING CONTROL SYSTEM” (GUANGZHOU BLUEMOON INDUSTRIAL CO., LTD., priority 2024, published 2026)
